Read-outs that look alike come from different tables or passages of the source.
Tests used:
Assay type in all cases: cell-based, human
U87MG cells [1] = assay: U87MG cell proliferation, MTS assay; conditions: Homo sapiens, U-87 MG, 72 h, MTS assay
Description: (§1) The U87MG cell line was obtained from the National Institute for Cancer Research of Genoa (Italy) and cultured in DMEM 10% FBS and 2 mM glutamine. To isolate GSCs, approximately 2.0×10^6 cells were suspended in 1 mL of a defined serum-free Neural Stem Cell (NSC) medium (Daniele, S., et al., Modulation of A1 and A2B adenosine receptor activity: a new strategy to sensitise glioblastoma stem cells to chemotherapy. Cell death & disease, 2014. 5(11): p. e1539). After 3-4 days of culture, the neurospheres were collected, suspended in NSC medium, dissociated into single cells, and plated for the assays. For the long-term treatment of cells, NSC or complete medium containing drugs was replaced every two to three days.
(§2) The human U87MG cells or GSCs were seeded at a density of 3×10^3 cells/well. After 24 h, the cells were treated from one to seven days with fresh growth medium containing different concentrations of SA16, SA23 or IB35. Following the treatment period, cell proliferation was determined using the MTS assay according to manufacturer's instruction. The absorbance of formazan at […] was measured in a colorimetric assay with an automated plate reader (Victor Wallac 2, Perkin Elmer). The results were calculated by subtracting the mean background from the values obtained from each evaluation and were expressed as the percentage of the control (untreated cells). Sigmoid dose-response curve was generated, from which the IC50 values were derived.
As representative GBM cell line, the above U87MG cells were used; this human cell line resulted an appropriate model to study the effects of PDK1 inhibition, because it is deficient for the tumour suppressor phosphatase and tensin homologue (PTEN), a negative regulator of the PI3K/AKT pathway (Wang, S. I., et al., Somatic mutations of PTEN in glioblastoma multiforme. Cancer research, 1997. 57(19): p. 4183-4186). To examine the effects of SA16, SA23 and IB35 on GBM cell growth/survival, U87MG cells were incubated with different concentrations of the new compounds (1 nM-10 μM) for 24 and 72 h. Specifically, U87MG cells were treated in complete medium with different concentrations of SA16, SA23 or IB35 (1 nM-10 μM) for 24 h (A) or 72 h (B). At the end of treatment, cell proliferation was measured using the MTS assay. The data are expressed as a percentage with respect to that of untreated cells (control), which was set to 100%, and are the mean values±SEM of three independent experiments, each performed in duplicate. The significance of the differences reported in FIGS. 1 and 2 was determined with a one-way ANOVA with Bonferroni post-test (* p<0.05, **p<0.01, *** p<0.001 vs. control cells).

[2] = tested on: GSCs isolated from U87MG cells; assay: GSC proliferation, MTS assay; conditions: Homo sapiens, U-87 MG, 168 h; seven days of treatment, MTS assay
Description: as §1, §2
The inhibition of PDK1 has been reported as potentially effective therapeutic approach to reduce self-renewal and propagation of GSCs (Signore, M., et al., Combined PDK1 and CHK1 inhibition is required to kill glioblastoma stem-like cells in vitro and in vivo. Cell death & disease, 2014. 5(5): p. e1223). On this basis, the effects of SA16, SA23 and IB35 on GSCs, isolated from U87MG cells as previously reported, were evaluated (Daniele, S., et al., Modulation of A1 and A28 adenosine receptor activity: a new strategy to sensitise glioblastoma stem cells to chemotherapy. Cell death & disease, 2014. 5(11): p. e1539). U87MG-derived GSCs were incubated with the indicated concentrations of IB35, SA23 or SA16 for four days (FIG. 8) or seven days (FIG. 9). At the end of the treatment periods, cell proliferation was measured using the MTS assay. The data were expressed as a percentage with respect to that of untreated cells (control), which was set to 100%, and are the mean values±SEM of three independent experiments, each performed in duplicate. IC50 values after seven days of treatment were calculated from sigmoid dose-response curve (FIG. 9). The significance of the differences was determined with a one-way ANOVA with Bonferroni post-test (** p<0.01, *** p<0.001 vs. control).

[3] = tested on: AKT phosphorylation at Thr308 in GSCs; assay: PDK1 activity in GSCs, (T308)AKT phosphorylation ELISA
Description: (§3) U87MG cells were cultured in 96-well microplates (5.000 cells/well), and treated for different times with 10 μM SA16, SA23 or IB35. At the end of the treatment period, the GSCs were centrifuged at 500×g for 3 minutes; cells were washed twice using fresh saline, and rapidly fixed with 4% (for adherent U87MG cells) or 8% (for suspension GSCs) formaldehyde to preserve activation of specific protein modification. The activity of PDK1 was assessed measuring the levels of phosphorylated AKT on Thr308, using a specific primary antibodies. The subsequent incubation with a secondary HRP-conjugated antibody and the developing solution allowed the colorimetric quantification of the levels of phosphorylated protein. The relative number of cells in each well was then determined using the Crystal-Violet assay. The results were calculated by subtracting the mean background value from the values obtained under each test condition: values were normalised to the number of cells in each well and were expressed as the percentages of the control (untreated cells) values.
The effects of the new compounds on PDK1 activity were investigated by ELISA assays also in GSCs. U87MG-derived CSCs were treated for the indicated times (0-120 min) with NSC medium containing DMSO (control), or 10 μM IIB35, SA23 or SA16. At the end of the treatment periods, the levels of AKT phosphorylation on Thr308 were evaluated using an ELISA assay, as above described. The data were expressed as the percentage of phosphorylated AKT relative to those of untreated cells (control), which were set at 100%, and were the mean values±SEM of three independent experiments performed in triplicate. The data are represented in FIG. 12. The significance of differences was performed using one-way ANOVA with Bonferroni post-test (* p<0.05, ** p<0.01, *** p<0.001 vs. control).

U87MG cells [4] = assay: Annexin V and 7-AAD staining in U87MG cells (apoptosis); conditions: 10 μM, 72 h
Description: Dual staining with Annexin V coniugated to fluorescein-isothiocyanate (FITC) and 7-amino-actinomysin (7-AAD) was performed using the commercially available kit (Muse Annexin V and Dead Cell Kit; Merck KGaA, Darmstadt, Germany). U87MG cells or GSCs were treated with DMSO (control), SA16, SA23 or IB35 for 72 h or seven days, respectively. At the end of the treatment periods, the percentages of living, apoptotic and dead cells were acquired and analysed by Muse™ Cell Analyzer as previously described (Daniele, S., et al., Combined inhibition of AKT/mTOR and MDM2 enhances Glioblastoma Multiforme cell apoptosis and differentiation of cancer stem cells. Sci. Rep., 2015. 5.).
It was then investigated whether the reduction in cell proliferation elicited by the PDK1 inhibitors could be associated with apoptosis. U87MG cells were treated for 72 h with DMSO (control), or 10 μM SA16, SA23 or IB35. At the end of the treatment period, the cells were collected, and the level of phosphatidylserine externalisation was evaluated using the Annexin V-staining protocol, as described above (FIG. 3). In FIG. 4 the data are expressed as the percentage of apoptotic cells (the data for the early-stage apoptotic cells shown in white, and the data for the late-stage apoptotic/necrotic cells shown in grey) versus the total number of cells. The data shown represented the mean±SEM of three different experiments. The significance of the differences was determined with a one-way ANOVA with Bonferroni post-test (*** p<0.001 vs. control).

[5] = tested on: AKT phosphorylation at Thr308 in U87MG cells; assay: PDK1 activity in U87MG cells, (T308)AKT phosphorylation ELISA
Description: as §3
280(4): p. 1107-1115). […] At the end of the treatment periods, the levels of (T308)AKT phosphorylation was evaluated using an ELISA kit, as described above. The data reported in FIG. 5 were expressed as the percentage of phosphorylated (T308)AKT relative to those of untreated cells (control), which were set at 100%, and were the mean values±SEM of three independent experiments performed in triplicate.

How did the IC50 (U87MG cells [1]; read-out: IC50 U87MG) turn out when `O=C1Nc2ccc(NC(=O)[C@H](NC(=O)c3cccn(Cc4ccc(F)c(F)c4)c3=O)c3ccccc3)cc2/C1=C/c1cnc[nH]1` [SA16, (Z)—(R)—N-(2-((3-((1H-imidazol-5-yl)methylene)-2-oxoindolin-5-yl)amino)-2-oxo-1-phenylethyl)-1-(3,4-difluorobenzyl)-2-oxo-1,2-dihydropyridine-3-carboxamide] was run?
Its IC50 is 2050 ± 190 nM.

What about the IC50 (U87MG cells [1]; read-out: IC50 U87MG cell proliferation) of the same compound?
The IC50 was 2050 ± 190 nM.

And the IC50 [2]?
Its IC50 is 5.47 ± 0.1 nM.

What about the “inhibition of AKT phosphorylation at Thr308” value ([3]; 10 μM, 0-120 min) of the same compound?
Its value is “biphasic kinetic”.

What about the inhibition at 10 µM ([3]; Homo sapiens, read-out: peak of inhibition (percentage of PDK1 inhibition)) of the same compound?
Its inhibition at 10 µM is 74.8 ± 3%.

What about the “phosphatidylserine externalization (early and late apoptosis/death)” value (U87MG cells [4]) of the same compound?
The value was “significant phosphatidylserine externalization”.

And the inhibition at 10 µM ([5]; Homo sapiens, U-87 MG, U87MG cells, read-out: peak of inhibition (percentage of PDK1 inhibition))?
Its inhibition at 10 µM is 33.3 ± 4.5%.

And the “inhibition of AKT phosphorylation at Thr308” value ([5]; U87MG, 10 μM, 0-120 min)?
The value was “biphasic kinetic”.

Source: patent US10351548B2, “2-oxo-1,2-dihydropyridine-3-carboxamide compounds and their use as inhibitors of PDK1” (INTERNATIONAL SOCIETY FOR DRUG DEVELOPMENT S.R.L., priority 2015, dated 2019)
